# Source: patent publication US20150018311A1, “THERAPEUTIC BORON-CONTAINING COMPOUNDS” (priority 2012, published 2015)
# Key:
# Assay type in all cases: cell-based
# [1] = test system: Candida albicans ATCC90028 (wild type); experiment: Filter paper disc antifungal assay on agar plates; conditions: 5 mm disc, 37° C. 24 hours
# Experimental: (§1) Compound 22 (the chloride salt) of table 1 was dissolved and the solution applied to a filter paper disc of diameter 5 mm. The filter paper discs were placed on plates containing the following strains of Candida albicans:
# ATCC90028 (“wild type”, i.e. not resistant to nystatin or fluconazole)
# (§2) The compound was applied at concentrations of 0.5, 1, 5, 10, 25 and 50 μg/ml. Nystatin and fluconazole at the same concentrations were applied in the same manner. […] All strains were tested at least three times.
# (§3) Clearly, the higher the number, the greater the antifungal activity.
# [2] = test system: Candida albicans ATCC38247 (resistant to fluconazole); experiment: Filter paper disc antifungal assay on agar plates; conditions: 5 mm disc, 37° C. 24 hours
# Experimental: as §1
# ATCC38247 (resistant to fluconazole)
# as §2, §3
# [3] = test system: Streptococcus pyogenes (ATCC 19615); experiment: Growth in liquid media in presence of test compound
# [4] = test system: Staphylococcus aureus (ATCC 25923); experiment: as above
# [5] = test system: Escherichia coli (ATCC 25922); experiment: as above
# [6] = test system: Pseudomonas aeruginosa (ATCC 27853); experiment: as above
# [7] = test system: Candida albicans (ATCC 90028); experiment: as above
# [8] = test system: Mycobacterium tuberculosis (H37Rv); experiment: as above
Structure (SMILES),"Growth in the presence of test compound, S. pyogenes ([3]; 5 mg/L)","Growth in the presence of test compound, S. pyogenes ([3]; 50 mg/L)","Growth in the presence of test compound, S. pyogenes ([3]; 500 mg/L)","Growth in the presence of test compound, S. aureus ([4]; 5 mg/L)","Growth in the presence of test compound, S. aureus ([4]; 50 mg/L)","Growth in the presence of test compound, S. aureus ([4]; 500 mg/L)","Growth in the presence of test compound, E. coli ([5]; 5 mg/L)","Growth in the presence of test compound, E. coli ([5]; 50 mg/L)","Growth in the presence of test compound, E. coli ([5]; 500 mg/L)","Growth in the presence of test compound, P. aeruginosa ([6]; 5 mg/L)","Growth in the presence of test compound, P. aeruginosa ([6]; 50 mg/L)","Growth in the presence of test compound, P. aeruginosa ([6]; 500 mg/L)","Growth in the presence of test compound, C. albicans ([7]; 5 mg/L)","Growth in the presence of test compound, C. albicans ([7]; 50 mg/L)","Growth in the presence of test compound, C. albicans ([7]; 500 mg/L)","Growth in the presence of test compound, M. tuberculosis ([8]; 5 mg/L)","Growth in the presence of test compound, M. tuberculosis ([8]; 50 mg/L)","Growth in the presence of test compound, M. tuberculosis ([8]; 500 mg/L)",further results
"OC(Cn1cncn1)(Cn1cncn1)c1ccc(F)cc1F [Fluconazole, reference compound]",,,,,,,,,,,,,,,,,,,"diameter of the area which did not show any Candida growth ([1]; ATCC90028, 0.5 μg/ml): 7.33 millimeters; diameter of the area which did not show any Candida growth ([1]; ATCC90028, 1 μg/ml): 13.33 millimeters; diameter of the area which did not show any Candida growth ([1]; ATCC90028, 5 μg/ml): 21.33 millimeters; diameter of the area which did not show any Candida growth ([1]; ATCC90028, 10 μg/ml): 25.66 millimeters; diameter of the area which did not show any Candida growth ([1]; ATCC90028, 25 μg/ml): 30 millimeters; diameter of the area which did not show any Candida growth ([1]; ATCC90028, 50 μg/ml): 31.33 millimeters; diameter of the area which did not show any Candida growth ([2]; ATCC38247, 0.5 μg/ml): 5 millimeters; diameter of the area which did not show any Candida growth ([2]; ATCC38247, 1 μg/ml): 5 millimeters; diameter of the area which did not show any Candida growth ([2]; ATCC38247, 5 μg/ml): 5 millimeters; diameter of the area which did not show any Candida growth ([2]; ATCC38247, 10 μg/ml): 5 millimeters; diameter of the area which did not show any Candida growth ([2]; ATCC38247, 25 μg/ml): 5 millimeters; diameter of the area which did not show any Candida growth ([2]; ATCC38247, 50 μg/ml): 5 millimeters"
CC1(C)C2CC3OB(C(CNC(=O)C(N)CCCCN)Cc4ccc(F)cc4)OC3(C)C1C2.Cl.Cl (stereo not drawn) [Compound 51],+,+,−,+,+,−,+,+,−,+,+,−,+,+,−,+,−,−,
CC1(C)C2CC3OB(C[C@@H](Cc4ccccc4)NC(=O)[C@H](Cc4ccccc4)NC(=O)[C@@H](N)Cc4ccccc4)O[C@]3(C)C1C2.Cl (stereo partly drawn) [Compound 45],+,+,+,+,±,+,+,+,+,+,+,+,+,+,−,+,−,+,
CC1(C)C2CC3OB([C@H](CCc4ccccc4)CNC(=O)[C@@H](N)CCCCN)O[C@]3(C)C1C2 (stereo partly drawn) [Compound 19],+,+,−,+,+,±,+,+,−,+,+,−,+,+,−,+,−,−,
CC1(C)C2CC3OB([C@@H](CNC(=O)[C@@H](N)Cc4ccccc4)Cc4ccc(OC(F)(F)F)cc4)O[C@]3(C)C1C2.Cl (stereo partly drawn) [Compound 55],+,±,+,+,±,+,+,+,+,+,+,+,+,+,±,−,−,−,
CC1(C)C2CC3OB(C(Cc4ccccc4)C(Cc4ccccc4)NC(=O)C(N)CCCCN)OC3(C)C1C2 (stereo not drawn) [Compound 31],+,+,−,+,+,−,+,+,−,+,+,−,+,+,−,+,−,−,
CC(NC(=O)C(N)CCCCN)C(Cc1ccccc1)B1OC2CC3CC(C3(C)C)C2(C)O1 (stereo not drawn) [Compound 26],+,+,−,+,+,−,+,+,−,+,+,−,+,+,−,−,−,−,
